PMC9157728, “Albumin Binder–Conjugated Fibroblast Activation Protein Inhibitor Radiopharmaceuticals for Cancer Therapy” (Journal of Nuclear Medicine, 2022)
Where two headings read alike, the source gives them in different places.

Experiments:
HT-1080 cells = assay: Cellular uptake assay in HT-1080 cells; format: cell-based, human; conditions: HT-1080 cells (FAP-negative)
Protocol: (§1) The human fibrosarcoma cell line (HT-1080), and the HT-1080 cell line transfected with human FAP gene (HT-1080-FAP, from WuXi AppTec), were cultivated in Eagle minimum essential medium containing 10% fetal bovine serum, 1% antibiotic–antimycotic, and a 4 μg/mL concentration of blasticidin S at 37°C under conditions of 5% carbon dioxide. For competition assays, HT-1080-FAP cells were seeded in 6-well plates and cultivated until they reached about 1.2 × 10^6 cells per well. The cells were incubated simultaneously with unlabeled FAPI-04, TEFAPI-06, or TEFAPI-07 (10^−5–10^−9 M) with ^68Ga-FAPI-04 in 1 mL of fresh medium without fetal bovine serum for 1 h. The medium was removed, and the cells were washed twice with phosphate-buffered saline (PBS). Subsequently, the cells were lysed with 0.5 mL of 1 M NaOH and washed with 0.5 mL of PBS twice, and the NaOH (0.5 mL) and PBS (0.5 mL × 2) were collected to determine the uptake counts. For saturation binding assays, HT-1080-FAP and HT-1080 cells were seeded in 24-well plates and cultivated until they reached about 2 × 10^5 cells per well. ^68Ga-FAPI-04, ^68Ga-TEFAPI-06, or ^68Ga-TEFAPI-07 was diluted to a concentration 0.01–200 nM in fresh medium without fetal bovine serum. The cells were incubated in the above solution for 1 h and then washed twice with PBS. The lysed cells and the PBS for washing were collected to determine the counts.

FAP [1] = target: T1, FAP (Homo sapiens, UniProt Q12884); assay: Saturation binding assay of ^68Ga-labeled tracers in HT-1080-FAP and HT-1080 cells; design: host or cells: HT-1080 human fibrosarcoma cells (HT-1080-FAP)
T1 sequence (Q12884 1-760): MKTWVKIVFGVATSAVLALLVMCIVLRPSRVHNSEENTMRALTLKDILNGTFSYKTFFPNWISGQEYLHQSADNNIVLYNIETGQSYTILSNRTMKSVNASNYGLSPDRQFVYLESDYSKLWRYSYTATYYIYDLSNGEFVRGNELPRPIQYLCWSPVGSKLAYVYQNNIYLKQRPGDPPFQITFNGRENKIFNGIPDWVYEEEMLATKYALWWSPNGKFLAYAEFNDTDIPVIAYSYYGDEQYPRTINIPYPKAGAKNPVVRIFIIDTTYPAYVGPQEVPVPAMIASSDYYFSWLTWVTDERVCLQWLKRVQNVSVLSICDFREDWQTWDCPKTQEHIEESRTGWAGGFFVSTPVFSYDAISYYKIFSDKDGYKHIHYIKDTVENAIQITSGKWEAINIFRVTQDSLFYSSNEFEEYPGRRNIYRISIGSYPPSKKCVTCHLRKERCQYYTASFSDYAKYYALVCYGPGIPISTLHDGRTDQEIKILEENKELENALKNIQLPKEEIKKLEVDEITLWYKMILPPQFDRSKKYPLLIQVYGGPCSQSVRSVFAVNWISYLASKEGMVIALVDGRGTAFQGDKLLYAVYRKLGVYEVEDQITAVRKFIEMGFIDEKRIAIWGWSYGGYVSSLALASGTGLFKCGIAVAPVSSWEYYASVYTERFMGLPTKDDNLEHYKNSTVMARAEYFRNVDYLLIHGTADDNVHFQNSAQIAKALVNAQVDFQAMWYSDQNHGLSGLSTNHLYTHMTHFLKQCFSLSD
Protocol: as §1

[2] = Dynamic PET imaging in healthy NOD/SCID mice (heart/blood signal); format: in vivo; conditions: for time of peak signal in heart after injection: dynamic PET
HT-1080-FAP cells = assay: Cellular uptake assay in HT-1080-FAP cells; format: cell-based, human
[3] = system: HT-1080-FAP and HT-1080 tumors; assay: PET imaging of HT-1080-FAP and HT-1080 tumor-bearing mice; format: in vivo; conditions: ^86Y PET, tumor-bearing nu/nu mice
Protocol: All animal care and experimental procedures were performed by following the animal protocols (CCME-LiuZB-2) approved by the ethics committee of Peking University. The mice were from the Beijing Vital River Laboratory Animal Technology Co., Ltd. For cell-line–derived xenograft models, 5 × 10^6 HT-1080-FAP or HT-1080 cells were subcutaneously inoculated into the right shoulder of 6-wk-old female nu/nu-mice. To establish the patient-derived xenograft (PDX) model, tumor specimens were obtained from patients who underwent presurgical ^68Ga-FAPI-04 PET/CT imaging to confirm that the tumor was FAP-positive. After surgical resection, the tumor specimens were immediately placed in ready-to-use fresh tissue preservation solution (TM2701-100) and transported under refrigerated conditions within 2 h. The research protocol was approved by the Institutional Ethics Committee of Peking Union Medical College Hospital (JS-2628). Six-week-old female nonobese diabetic/severe combined immunodeficiency (NOD/SCID) mice were used to establish the PDX models. […] Engraftment efficiency was determined by ^68Ga-FAPI-04 PET/CT imaging (Supplemental Fig. 21A). […]

[4] = system: pancreatic cancer PDX tumors; assay: Static PET imaging in pancreatic cancer PDX-bearing mice; format: in vivo; conditions: for peak tumor SUVmean / time of peak tumor SUVmean after injection: ^86Y PET; for tumor area under the curve relative to FAPI-04: ^86Y PET tumor SUVmean curve
Protocol: All animal care and experimental procedures were performed by following the animal protocols (CCME-LiuZB-2) approved by the ethics committee of Peking University. The mice were from the Beijing Vital River Laboratory Animal Technology Co., Ltd. For cell-line–derived xenograft models, 5 × 10^6 HT-1080-FAP or HT-1080 cells were subcutaneously inoculated into the right shoulder of 6-wk-old female nu/nu-mice. To establish the patient-derived xenograft (PDX) model, tumor specimens were obtained from patients who underwent presurgical ^68Ga-FAPI-04 PET/CT imaging to confirm that the tumor was FAP-positive. After surgical resection, the tumor specimens were immediately placed in ready-to-use fresh tissue preservation solution (TM2701-100) and transported under refrigerated conditions within 2 h. The research protocol was approved by the Institutional Ethics Committee of Peking Union Medical College Hospital (JS-2628). Six-week-old female nonobese diabetic/severe combined immunodeficiency (NOD/SCID) mice were used to establish the PDX models. After being removed from the preservation solution, the tumor specimens were immediately immersed in sterile PBS solution and minced with scissors, and the fragments were then implanted subcutaneously into the left and right shoulders of the mice, which were anesthetized with isoflurane in advance. Engraftment efficiency was determined by ^68Ga-FAPI-04 PET/CT imaging (Supplemental Fig. 21A).
All PET scans were performed on a Mediso nanoScan PET 122S small-animal PET/CT imaging system. For the 60-min dynamic PET scan, 29.6–37.0 MBq of ^68Ga-TEFAPI-06 or ^68Ga-TEFAPI-07 were given to healthy NOD/SCID mice through tail-vein injection. The static PET imaging was performed on mice bearing pancreatic PDX tumors, HT-1080-FAP tumors, and HT-1080 tumors at the indicated time points after intravenous injection of 7.4–11.1 MBq of ^86Y-FAPI-04,^86Y-TEFAPI-06, or ^86Y-TEFAPI-07.

FAP [5] = target: T1, FAP; assay: Blocking study in vivo with cold ligand; design: from tissue; host or cells: tumour in tumour-bearing mice; species or system mice; conditions: 12 h and 24 h after treatment with cold ligand
FAP [6] = target: T1, FAP; assay: Competition assay against ^68Ga-FAPI-04 in HT-1080-FAP cells; format: binding; design: host or cells: HT-1080 human fibrosarcoma cells (HT-1080-FAP)
Protocol: as §1

[7] = ^68Ga-labeled tracer, 0.01-200 nM, 1 h, medium without FBS, read-out: dissociation constant (Kd)
[8] = binding assays in 0.05% human serum albumin, sentence prints 'in the absence of albumin', read-out: dissociation constant, binding assays in 0.05% human serum albumin
[9] = 0.05% human serum albumin, read-out: half-maximal inhibitory concentration in the presence of albumin
[10] = HT-1080-FAP cells, unlabeled ligand vs ^68Ga-FAPI-04, 1 h, medium without FBS, read-out: half-maximal inhibitory concentration (IC50)

| Structure (SMILES) | cellular uptake in HT-1080 cells (HT-1080 cells) | Kd (FAP [1]; [7]) | decrease of heart signal from 10 to 60 min after injection [2] | decrease of heart signal from 10 to 240 min after injection [2] | decrease of heart signal from 60 to 240 min after injection [2] | time of peak signal in heart after injection [2] | cellular uptake in HT-1080-FAP cells (HT-1080-FAP cells) | uptake in HT-1080-FAP tumors relative to HT-1080 tumors [3] | tumor SUVmean at 36 h after injection [4] | peak tumor SUVmean [4] | time of peak tumor SUVmean after injection [4] | Kd (FAP [1]; [8]) | tumor uptake after treatment with cold ligand (blocking) (FAP [5]) | IC50 (FAP [6]; [9]) | IC50 (FAP [6]; [10]) | tumor area under the curve relative to FAPI-04 [4] |
| --- | --- | --- | --- | --- | --- | --- | --- | --- | --- | --- | --- | --- | --- | --- | --- | --- |
| Cc1cc(-c2ccc(NC(=O)CCCC(=O)N[C@@H](CCCCNC(=O)CN3CCN(CC(=O)[O-])CCN(CC(=O)[O-])CCN(CC(=O)[O-])CC3)C(=O)N3CCN(CCCOc4ccc5nccc(C(=O)NCC(=O)N6CC(F)(F)C[C@H]6C#N)c5c4)CC3)c(C)c2)ccc1N=Nc1ccc2c(S(=O)(=O)O)cc(S(=O)(=O)O)c(N)c2c1O.[68Ga+3] [^68Ga-TEFAPI-07] | almost negligible uptake | 7.81 ± 2.28 nM | 23.15% ± 2.16% | 54.28% ± 4.98% | 40.56% ± 5.25% | about 2 min | significant uptake |  |  |  |  |  |  |  |  |  |
| N#C[C@@H]1CC(F)(F)CN1C(=O)CNC(=O)c1ccnc2ccc(OCCCN3CCN(C(=O)[C@H](CCCCNC(=O)CN4CCN(CC(=O)[O-])CCN(CC(=O)[O-])CCN(CC(=O)[O-])CC4)NC(=O)CCCC(=O)NC(CCCCNC(=O)CCCc4ccc(I)cc4)C(=O)O)CC3)cc12.[86Y+3] (stereo partly shown) [^86Y-TEFAPI-06] |  |  |  |  |  |  |  | 2- to 6 fold | 0.602 | 0.73 | 18 h |  |  |  |  |  |
| Cc1cc(-c2ccc(NC(=O)CCCC(=O)N[C@@H](CCCCNC(=O)CN3CCN(CC(=O)[O-])CCN(CC(=O)[O-])CCN(CC(=O)[O-])CC3)C(=O)N3CCN(CCCOc4ccc5nccc(C(=O)NCC(=O)N6CC(F)(F)C[C@H]6C#N)c5c4)CC3)c(C)c2)ccc1N=Nc1ccc2c(S(=O)(=O)O)cc(S(=O)(=O)O)c(N)c2c1O.[86Y+3] [^86Y-TEFAPI-07] |  |  |  |  |  |  |  | 2- to 6 fold | 0.606 | 0.81 | 8 h |  |  |  |  |  |
| N#C[C@@H]1CC(F)(F)CN1C(=O)CNC(=O)c1ccnc2ccc(OCCCN3CCN(C(=O)[C@H](CCCCNC(=O)CN4CCN(CC(=O)[O-])CCN(CC(=O)[O-])CCN(CC(=O)[O-])CC4)NC(=O)CCCC(=O)NC(CCCCNC(=O)CCCc4ccc(I)cc4)C(=O)O)CC3)cc12.[68Ga+3] (stereo partly shown) [^68Ga-TEFAPI-06] | almost negligible uptake | 10.2 ± 2.56 nM | 35.70% ± 4.74% | 56.18% ± 2.50% | 31.80% ± 1.15% | about 2 min | significant uptake |  |  |  |  |  |  |  |  |  |
| N#C[C@@H]1CC(F)(F)CN1C(=O)CNC(=O)c1ccnc2ccc(OCCCN3CCN(C(=O)[C@H](CCCCNC(=O)CN4CCN(CC(=O)O)CCN(CC(=O)O)CCN(CC(=O)O)CC4)NC(=O)CCCC(=O)NC(CCCCNC(=O)CCCc4ccc(I)cc4)C(=O)O)CC3)cc12 (stereo partly shown) [TEFAPI-06] |  | 10.2 ± 2.56 nM |  |  |  |  |  |  |  |  |  | 4.37 ± 0.81 nM | tumor uptake decreased | 11.4 ± 1.15 nM | 12.2 ± 0.65 nM | 37.9 fold |
| Cc1cc(-c2ccc(NC(=O)CCCC(=O)N[C@@H](CCCCNC(=O)CN3CCN(CC(=O)O)CCN(CC(=O)O)CCN(CC(=O)O)CC3)C(=O)N3CCN(CCCOc4ccc5nccc(C(=O)NCC(=O)N6CC(F)(F)C[C@H]6C#N)c5c4)CC3)c(C)c2)ccc1N=Nc1ccc2c(S(=O)(=O)O)cc(S(=O)(=O)O)c(N)c2c1O [TEFAPI-07] |  | 7.81 ± 2.28 nM |  |  |  |  |  |  |  |  |  | 19.1 ± 5.54 nM | tumor uptake decreased | 27.7 ± 5 nM | 17 ± 1.43 nM | 35.5 fold |
